Experimental data: publication PMC12467433, “Isoniazid-Derived Hydrazones Featuring Piperazine/Piperidine Rings: Design, Synthesis, and Investigation of Antitubercular Activity” (Biomolecules, 2025)
In brackets after ≈: the same amount, converted by molar mass.

Columns and labels:
[1] = tested on: INH-resistant Mtb clinical isolate with inhA promoter mutation; assay type: cell-based, Mycobacterium tuberculosis
[2] = tested on: INH-resistant Mtb clinical isolate with katG S315T mutation; assay type: cell-based, Mycobacterium tuberculosis

| Structure (SMILES) | MIC [1] [µM] | MIC [2] [µM] |
| --- | --- | --- |
| CN1CCN(c2ccc(C=NNC(=O)c3ccncc3)cc2)CC1 [IP10, N′-(4-(4-Methylpiperazin-1-yl)benzylidene)isonicotinohydrazide] | 1.56 (≈ 0.505 µg/mL) | 25 (≈ 8.09 µg/mL) |
| O=C(NN=Cc1ccc(N2CCN(C3CCCCC3)CC2)cc1)c1ccncc1 [IP11, N′-(4-(4-Cyclohexylpiperazin-1-yl)benzylidene)isonicotinohydrazide] | 0.78 (≈ 0.305 µg/mL) | 12.5 (≈ 4.89 µg/mL) |
| CCOC(=O)C1CCN(c2ccc(C=NNC(=O)c3ccncc3)cc2)CC1 [IP12, Ethyl 1-(4-((2-isonicotinoylhydrazono)methyl)phenyl)piperidine-4-carboxylate] | 1.56 (≈ 0.593 µg/mL) | 25 (≈ 9.51 µg/mL) |
| O=C(NN=Cc1ccc(N2CCN(c3ccccn3)CC2)cc1)c1ccncc1 [IP8, N′-(4-(4-(Pyridin-2-yl)piperazin-1-yl)benzylidene)isonicotinohydrazide] | 1.56 (≈ 0.603 µg/mL) | 50 (≈ 19.3 µg/mL) |
| NNC(=O)c1ccncc1 [INH, isonicotinic acid hydrazide, reference compound] | 1.56 (≈ 0.214 µg/mL) | 6.25 (≈ 0.857 µg/mL) |
| COc1ccc(N2CCN(c3ccc(C=NNC(=O)c4ccncc4)cc3)CC2)cc1 [IP7, N′-(4-(4-(4-Methoxyphenyl)piperazin-1-yl)benzylidene)isonicotinohydrazide] | 25 (≈ 10.4 µg/mL) | 100 (≈ 41.5 µg/mL) |
| NC(=O)C1CCN(c2ccc(C=NNC(=O)c3ccncc3)cc2)CC1 [IP13, 1-(4-((2-Isonicotinoylhydrazono)methyl)phenyl)piperidine-4-carboxamide] | 1.56 (≈ 0.548 µg/mL) | 50 (≈ 17.6 µg/mL) |
| O=C(NN=Cc1ccc(N2CCN(c3ncccn3)CC2)cc1)c1ccncc1 [IP9, N′-(4-(4-(Pyrimidin-2-yl)piperazin-1-yl)benzylidene)isonicotinohydrazide] | 3.12 (≈ 1.21 µg/mL) | 25 (≈ 9.69 µg/mL) |
